Data published in patent publication US20110183942A1, “Methods and Compositions for Treating Alzheimer's Disease” (UNIVERSITY OF MEDICINE AND DENTISTRY OF NEW JERSEY, priority 2008, published 2011).

Legend:
[1] = system: Arc mRNA in cultured neurons; assay: Real-time RT-PCR of Arc mRNA; type: cell-based; conditions: BDNF 10 ng/ml at 40 min; forskolin 50 μM at 20 min; DHPG at 20 and 40 min after stimulation
Method: RNA samples from neuronal cultures were prepared using the PARIS kit (Ambion) according to the manufacturer's protocol. Following RNA extraction, samples were treated with DNase to remove contaminating DNA prior to cDNA synthesis. Total RNA was reverse transcribed using the SuperScript II First Strand Synthesis System for RT-PCR (Invitrogen) according to the manufacturer's protocol. A negative control without reverse transcriptase was included.
Primer specificity was verified by melt curve analysis. PCR amplification of cDNA was performed using the BioRad iCycler Real-Time Detection System (BioRad Laboratories). cDNA (1 μl) was added to 24 μl of 1× reaction master mix (3 mM MgCl2, KCl, Tris-HCl, iTaq DNA polymerase, 25 units/ml SYBR Green 1, 0.2 mM each dNTPs, 10 nM fluorescein and 500 nM each gene specific primers). […]
GAPDH was used to normalize data. The threshold for detection of PCR product above background was set at 10× the standard deviation of the mean background fluorescence for all reactions. Background fluorescence was determined from cycles 1-5 prior to the exponential amplification of product and subtracted from the raw fluorescence of each reaction/cycle. […] Threshold cycle (CT; number of cycles to reach threshold of detection) was determined for each reaction.
Relative gene expression was determined using the 2^−ΔΔCT method (Livak, et al., Methods 25, 402-408 (2001)). […]

phospho-eEF2 = assay: Phospho-eEF2 in hippocampal slices (immunohistochemistry, Western blot); type: cell-based, mouse; conditions: WT hippocampal slices, DHPG 50 μM, 5 min
Method: Transfected HEK293T cells or cultured neurons were treated with various drugs and then harvested in IP buffer supplemented with 1% Triton X-100 buffer and Complete™ EDTA-Free protease inhibitors. Soluble fractions were diluted with 4× SDS sample buffer.
Samples were separated electrophoretically using NuPAGE 4-12% Bis-Tris gels (Invitrogen) and transferred to an Immobilon-P PVDF membrane (Millipore). The membrane was blocked with TBST (50 mM Tris, pH 7.5, with 150 mM NaCl, and 0.1% Tween-20) containing 5% non-fat milk for one hour at room temperature, followed by incubation with primary antibody in TBST buffer overnight at 4° C. After three washes with TBST buffer, membranes were incubated with HRP-conjugated anti-rabbit, or anti-mouse antibody in TBST for another hour. After three washes with TBST buffer, the membrane was treated with SuperSignal ECL substrate (Pierce) according to the manufacturer's protocol.
Immunohistochemistry of phospho-eEF2 in WT and eEF2K mice was performed as described (Ramirez-Amaya et al., J. Neurosci. 25, 1761-1768 (2005)) with slight modifications. […] The signals were visualized using the cyanine 3 (CY3) TSA fluorescence system (PerkinElmer Life Sciences), and the nuclei were stained with DAPI (Molecular Probes). No staining was detected in the absence of the primary or secondary antibodies. No phospho-eEF2 signal was detected in eEF2K KO sections.

For `NC(C(=O)O)c1cc(O)cc(O)c1` (racemic) [DHPG, (R,S)-3,5-DHPG], the “level of Arc mRNA” value [1] was “slightly increased the level of Arc mRNA” and the phospho-eEF2 level (phospho-eEF2) was “dramatically increased”.
